# Key:
# [1] = tested on: rabbit serum obtained by immunizing a rabbit with the SARS-CoV strain Frankfurt 1; format: binding; set-up: Binding of a rabbit serum to linear peptides / Binding of a rabbit serum to looped peptides / Rabbit serum linear peptides / Rabbit serum looped peptides / Binding of a rabbit serum to linear peptides of protein N of SARS-CoV Urbani (Rabbit serum linear peptides) / Binding of a rabbit serum to looped/cyclic peptides of protein N of SARS-CoV Urbani (Rabbit serum looped peptides): unit not given here
# [2] = tested on: control sera (pooled serum of ten healthy LUMC hospital workers; commercial negative donor pooled serum from the Dutch bloodbank); format: binding, human; set-up: Binding of Control serum LUMC to linear peptides / Binding of Control serum Blood-bank to linear peptides / Binding of Control serum LUMC to looped peptides / Binding of Control Serum Blood-Bank to Looped peptides / Binding of Control serum LUMC to linear peptides of the protein M of SARS-CoV Urbani / Binding of Control serum Blood-bank to linear peptides of the protein M of SARS-CoV Urbani / Binding of Control serum LUMC to looped peptides of the protein M of SARS-CoV Urbani / Binding of Control Serum Blood-Bank to Looped peptides of the protein M of SARS-CoV Urbani: unit not given here
# [3] = tested on: antibodies in sera from SARS patients (sera 1a, 1b, 2, 6, 37, 62, London, SARS-yellow, SARS-green); format: binding, human; set-up: Binding of serum 6 to linear peptides of protein X1 of SARS-CoV Urbani / Binding of serum 37 to linear peptides of protein X1 of SARS-CoV Urbani / Binding of serum 6 to looped/cyclic peptide (PEPSCAN-ELISA) / Binding of serum 37 to looped/cyclic peptide (PEPSCAN-ELISA) / Binding of serum 37 to looped/cyclic peptides of protein X1 of SARS-CoV Urbani / Binding of serum 6 to linear peptides of protein X2 / Binding of serum 37 to linear peptides of protein X2 / Binding of serum 37 to looped/cyclic peptides of protein X2 of SARS-CoV Urbani / Binding of serum 6 to linear peptides of protein M of SARS-CoV Urbani / Binding of serum 37 to linear peptides of protein M of SARS-CoV Urbani / Binding of serum 6 to looped/cyclic peptides of protein M of SARS-CoV Urbani / Binding of serum 37 to looped/cyclic peptides of protein M of SARS-CoV Urbani / Binding of serum 6 to linear peptides of protein X3 of SARS-CoV Urbani / Binding of serum 37 to linear peptides of protein X3 of SARS-CoV Urbani / Binding of serum 37 to looped/cyclic peptides of protein X3 of SARS-CoV Urbani / Binding of serum 6 to linear peptides of protein X4 of SARS-CoV Urbani / Binding of serum 37 to linear peptides of protein X4 of SARS-CoV Urbani / Binding of serum 37 to looped/cyclic peptides of protein X4 of SARS-CoV Urbani / Binding of serum 6 to linear peptides of protein X5 of SARS-CoV Urbani / Binding of serum 37 to linear peptides of protein X5 of SARS-CoV Urbani / Binding of serum 37 to looped/cyclic peptides of protein X5 of SARS-CoV Urbani / Binding of serum 6 to linear peptides of protein N of SARS-CoV Urbani / Binding of serum 37 to linear peptides of protein N of SARS-CoV Urbani / Binding of serum 6 to linear peptide (PEPSCAN-ELISA) / Binding of serum 1a to looped/cyclic peptides of protein N of SARS-CoV Urbani / Binding of serum 1b to looped/cyclic peptides of protein N of SARS-CoV Urbani / Binding of serum 2 to looped/cyclic peptides of protein N of SARS-CoV Urbani / Binding of serum 6 to looped/cyclic peptides of protein N of SARS-CoV Urbani / Binding of serum 37 to looped/cyclic peptides of protein N of SARS-CoV Urbani / Binding of serum 62 to looped/cyclic peptides of protein N of SARS-CoV Urbani / Binding of serum London to looped/cyclic peptides of protein N of SARS-CoV Urbani / Binding of serum SARS-green to looped/cyclic peptides of protein N of SARS-CoV Urbani: unit not given here
sequence,measurement,setting,value
DPAGGALIARCWYLH,Rabbit serum linear peptides,[1],0.3
same,Rabbit serum looped peptides,[1],0.5
same,Binding of Control Serum Blood-Bank to Looped peptides,[2],0.8
same,Binding of Control serum Blood-bank to linear peptides,[2],0.7
same,Binding of Control serum LUMC to linear peptides,[2],0.3
same,Binding of Control serum LUMC to looped peptides,[2],0.6
same,Binding of serum 1a to linear peptides of protein X5 of SARS-CoV Urbani,[3],0.7
same,Binding of serum 1a to looped/cyclic peptides of protein X5 of SARS-CoV Urbani,[3],0.8
same,Binding of serum 1b to linear peptides of protein X5 of SARS-CoV Urbani,[3],0.6
same,Binding of serum 1b to looped/cyclic peptides of protein X5 of SARS-CoV Urbani,[3],0.5
same,Binding of serum 2 to linear peptides of protein X5 of SARS-CoV Urbani,[3],0.4
same,Binding of serum 2 to looped/cyclic peptides of protein X5 of SARS-CoV Urbani,[3],0.5
same,Binding of serum 6 to linear peptides of protein X5 of SARS-CoV Urbani,[3],0.5
same,Binding of serum 6 to looped/cyclic peptides of protein X5 of SARS-CoV Urbani,[3],0.4
same,Binding of serum 37 to linear peptides of protein X5 of SARS-CoV Urbani,[3],0.8
same,Binding of serum 37 to looped/cyclic peptides of protein X5 of SARS-CoV Urbani,[3],0.7
same,Binding of serum 62 to linear peptides of protein X5 of SARS-CoV Urbani,[3],0.7
same,Binding of serum 62 to looped/cyclic peptides of protein X5 of SARS-CoV Urbani,[3],0.6
same,Binding of serum London to linear peptides of protein X5 of SARS-CoV Urbani,[3],0.6
same,Binding of serum London to looped/cyclic peptides of protein X5 of SARS-CoV Urbani,[3],0.2
same,Binding of serum SARS-green to linear peptides of protein X5 of SARS-CoV Urbani,[3],0.6
same,Binding of serum SARS-green to looped/cyclic peptides of protein X5 of SARS-CoV Urbani,[3],0.6
same,Binding of serum SARS-yellow to linear peptides of protein X5 of SARS-CoV Urbani,[3],0.2
same,Binding of serum SARS-yellow to looped/cyclic peptides of protein X5 of SARS-CoV Urbani,[3],0.3
LVIGVAFLAVFQSAT,Binding of a rabbit serum to linear peptides,[1],0.3
same,Binding of a rabbit serum to looped peptides,[1],1.2
same,Binding of Control Serum Blood-Bank to Looped peptides,[2],1.1
same,Binding of Control serum Blood-bank to linear peptides,[2],0.6
same,Binding of Control serum LUMC to linear peptides,[2],0.6
same,Binding of Control serum LUMC to looped peptides,[2],1.0
same,Binding of serum 1a to linear peptides of protein X1 of SARS-CoV Urbani,[3],0.7
same,Binding of serum 1a to looped/cyclic peptide (PEPSCAN-ELISA),[3],0.8
same,Binding of serum 1b to linear peptides of protein X1 of SARS-CoV Urbani,[3],0.6
same,Binding of serum 1b to looped/cyclic peptide (PEPSCAN-ELISA),[3],0.6
same,Binding of serum 2 to linear peptides of protein X1 of SARS-CoV Urbani,[3],0.6
same,Binding of serum 2 to looped/cyclic peptide (PEPSCAN-ELISA),[3],0.7
same,Binding of serum 6 to linear peptides of protein X1 of SARS-CoV Urbani,[3],0.4
same,Binding of serum 6 to looped/cyclic peptide (PEPSCAN-ELISA),[3],0.7
same,Binding of serum 37 to linear peptides of protein X1 of SARS-CoV Urbani,[3],0.6
same,Binding of serum 37 to looped/cyclic peptide (PEPSCAN-ELISA),[3],0.8
same,Binding of serum 62 to linear peptides of protein X1 of SARS-CoV Urbani,[3],0.6
same,Binding of serum 62 to looped/cyclic peptide (PEPSCAN-ELISA),[3],1.0
same,Binding of serum London to linear peptides of protein X1 of SARS-CoV Urbani,[3],0.3
same,Binding of serum London to looped/cyclic peptide (PEPSCAN-ELISA),[3],0.3
same,Binding of serum SARS-green to linear peptides of protein X1 of SARS-CoV Urbani,[3],0.3
same,Binding of serum SARS-green to looped/cyclic peptide (PEPSCAN-ELISA),[3],0.5
same,Binding of serum SARS-yellow to linear peptides of protein X1 of SARS-CoV Urbani,[3],0.4
same,Binding of serum SARS-yellow to looped/cyclic peptide (PEPSCAN-ELISA),[3],0.7
QTAAFRDVLVVLNKR,Rabbit serum linear peptides,[1],0.4
same,Rabbit serum looped peptides,[1],0.5
same,Binding of Control Serum Blood-Bank to Looped peptides,[2],0.7
same,Binding of Control serum Blood-bank to linear peptides,[2],0.6
same,Binding of Control serum LUMC to linear peptides,[2],0.8
same,Binding of Control serum LUMC to looped peptides,[2],0.5
same,Binding of serum 1a to linear peptides of protein X5 of SARS-CoV Urbani,[3],0.5
same,Binding of serum 1a to looped/cyclic peptides of protein X5 of SARS-CoV Urbani,[3],0.6
same,Binding of serum 1b to linear peptides of protein X5 of SARS-CoV Urbani,[3],0.5
same,Binding of serum 1b to looped/cyclic peptides of protein X5 of SARS-CoV Urbani,[3],0.5
same,Binding of serum 2 to linear peptides of protein X5 of SARS-CoV Urbani,[3],0.6
same,Binding of serum 2 to looped/cyclic peptides of protein X5 of SARS-CoV Urbani,[3],0.6
same,Binding of serum 6 to linear peptides of protein X5 of SARS-CoV Urbani,[3],0.6
same,Binding of serum 6 to looped/cyclic peptides of protein X5 of SARS-CoV Urbani,[3],0.8
same,Binding of serum 37 to linear peptides of protein X5 of SARS-CoV Urbani,[3],0.5
same,Binding of serum 37 to looped/cyclic peptides of protein X5 of SARS-CoV Urbani,[3],0.6
same,Binding of serum 62 to linear peptides of protein X5 of SARS-CoV Urbani,[3],0.4
same,Binding of serum 62 to looped/cyclic peptides of protein X5 of SARS-CoV Urbani,[3],0.6
same,Binding of serum London to linear peptides of protein X5 of SARS-CoV Urbani,[3],0.5
same,Binding of serum London to looped/cyclic peptides of protein X5 of SARS-CoV Urbani,[3],0.5
same,Binding of serum SARS-green to linear peptides of protein X5 of SARS-CoV Urbani,[3],0.2
same,Binding of serum SARS-green to looped/cyclic peptides of protein X5 of SARS-CoV Urbani,[3],0.3
same,Binding of serum SARS-yellow to linear peptides of protein X5 of SARS-CoV Urbani,[3],0.6
same,Binding of serum SARS-yellow to looped/cyclic peptides of protein X5 of SARS-CoV Urbani,[3],0.4
PCPSGTYEGNSPFHP,Rabbit serum linear peptides,[1],0.6
same,Rabbit serum looped peptides,[1],0.4
same,Binding of Control Serum Blood-Bank to Looped peptides,[2],0.7
same,Binding of Control serum Blood-bank to linear peptides,[2],0.6
same,Binding of Control serum LUMC to linear peptides,[2],0.5
same,Binding of Control serum LUMC to looped peptides,[2],0.9
same,Binding of serum 1a to linear peptides of protein X4 of SARS-CoV Urbani,[3],0.7
same,Binding of serum 1a to looped/cyclic peptides of protein X4 of SARS-CoV Urbani,[3],0.7
same,Binding of serum 1b to linear peptides of protein X4 of SARS-CoV Urbani,[3],0.5
same,Binding of serum 1b to looped/cyclic peptides of protein X4 of SARS-CoV Urbani,[3],0.1
same,Binding of serum 2 to linear peptides of protein X4 of SARS-CoV Urbani,[3],0.4
same,Binding of serum 2 to looped/cyclic peptides of protein X4 of SARS-CoV Urbani,[3],0.7
same,Binding of serum 6 to linear peptides of protein X4 of SARS-CoV Urbani,[3],0.5
same,Binding of serum 6 to looped/cyclic peptides of protein X4 of SARS-CoV Urbani,[3],0.5
same,Binding of serum 37 to linear peptides of protein X4 of SARS-CoV Urbani,[3],0.7
same,Binding of serum 37 to looped/cyclic peptides of protein X4 of SARS-CoV Urbani,[3],0.7
same,Binding of serum 62 to linear peptides of protein X4 of SARS-CoV Urbani,[3],0.7
same,Binding of serum 62 to looped/cyclic peptides of protein X4 of SARS-CoV Urbani,[3],0.7
same,Binding of serum London to linear peptides of protein X4 of SARS-CoV Urbani,[3],0.7
same,Binding of serum London to looped/cyclic peptides of protein X4 of SARS-CoV Urbani,[3],0.3
same,Binding of serum SARS-green to linear peptides of protein X4 of SARS-CoV Urbani,[3],0.5
same,Binding of serum SARS-green to looped/cyclic peptides of protein X4 of SARS-CoV Urbani,[3],0.4
same,Binding of serum SARS-yellow to linear peptides of protein X4 of SARS-CoV Urbani,[3],0.7
same,Binding of serum SARS-yellow to looped/cyclic peptides of protein X4 of SARS-CoV Urbani,[3],0.4
MSRRRLLACLCKHKK,Binding of a rabbit serum to linear peptides,[1],0.2
same,Binding of a rabbit serum to looped peptides,[1],0.3
same,Binding of Control Serum Blood-Bank to Looped peptides,[2],0.3
same,Binding of Control serum Blood-bank to linear peptides,[2],0.7
same,Binding of Control serum LUMC to linear peptides,[2],0.5
same,Binding of Control serum LUMC to looped peptides,[2],0.2
same,Binding of serum 1a to looped/cyclic peptides of protein X2 of SARS-CoV Urbani,[3],0.2
same,Binding of serum 1b to looped/cyclic peptides of protein X2 of SARS-CoV Urbani,[3],0.1
same,Binding of serum 2 to looped/cyclic peptides of protein X2 of SARS-CoV Urbani,[3],0.0
same,Binding of serum 6 to looped/cyclic peptides of protein X2 of SARS-CoV Urbani,[3],0.1
same,Binding of serum 37 to looped/cyclic peptides of protein X2 of SARS-CoV Urbani,[3],0.2
same,Binding of serum 62 to looped/cyclic peptides of protein X2 of SARS-CoV Urbani,[3],0.3
same,Binding of serum London to looped/cyclic peptides of protein X2 of SARS-CoV Urbani,[3],0.1
same,Binding of serum SARS-green to looped/cyclic peptides of protein X2 of SARS-CoV Urbani,[3],0.1
same,Binding of serum SARS-yellow to looped/cyclic peptides of protein X2 of SARS-CoV Urbani,[3],0.1
same,"Recognition of the peptide by sera of SARS-CoV infected individuals, and form (linear, looped/cyclic) in which it is recognized",[3],recognized in linear form

# From patent publication US20070128217A1 (priority 2003, published 2007)
